Source: ChEMBL document CHEMBL3507680, “University of Dundee, Gates Library screen for HepG2 cell viability”

Assay: Human HepG2 cell viability assay in 384 well format
Type: toxicity, cell-based
Set-up: dose 125 nL, time 70.5 hour; cytotoxicity at 70.5 h: concentration not given beside the values
Conditions: HepG2 cells, read-out: Inhibition

With CC(C)Oc1cccc(C(=O)C2CCCN(C(=O)c3cncs3)C2)c1 (stereo not drawn) the cytotoxicity at 70.5 h was -10.7%.
NCCSc1nccc(-c2cnc(C3CC3)nc2-c2ccco2)n1 showed a cytotoxicity at 70.5 h of 21.8%.
OC[C@H]1CCCN1c1nccc(-c2cncnc2C2CCCCC2)n1 gave a cytotoxicity at 70.5 h of -2.18%.
CC[C@@H](CO)Nc1nccc(-c2c[nH]c3cc(C(=O)OC)ccc23)n1 showed a cytotoxicity at 70.5 h of -2.08%.
In the case of Cc1ncc(-c2ccnc(SCCN(C)C)n2)c(-c2ccco2)n1, the cytotoxicity at 70.5 h is reported as 20.1%.
Cc1csc2ncc(-c3ccnc(NC4CCOCC4)n3)c(=O)n12 showed a cytotoxicity at 70.5 h of 0.723%.
With Cc1ncc(-c2ccnc(N3CCC[C@@H]3CO)n2)c(-c2cccnc2)n1 the cytotoxicity at 70.5 h was -3.34%.
With Cc1ccc(-c2ccnc3cc(CC(=O)N4CCN(C)CC4)nn23)cc1 the cytotoxicity at 70.5 h was 0.106%.
CCNc1nc(-c2cccnc2)c(-c2ccnc(N3CCCC3)n2)s1 showed a cytotoxicity at 70.5 h of -6.77%.
For CN1CCCN(c2nccc(-c3cncnc3C3CCCCC3)n2)CC1, the cytotoxicity at 70.5 h was 20.6%.
In the case of COCC(=O)N1CC(=O)c2sc(Nc3ccc(F)cc3F)nc2C1, the cytotoxicity at 70.5 h is reported as 0.281%.
In the case of NC(=O)C1CCN(c2nccc(-c3c[nH]nc3C3CCCCC3)n2)CC1, the cytotoxicity at 70.5 h is reported as -4.42%.
For CC(=O)N1CCC(n2ccc(-c3cnc(N4CCOCC4)nc3)n2)CC1, the cytotoxicity at 70.5 h was -5.97%.
CC[C@H](C)[C@H](N)C(=O)N1CC(=O)c2sc(NC3CCCCC3)nc2C1 showed a cytotoxicity at 70.5 h of 3.97%.
In the case of CC(C)CC(=O)N1CC(=O)c2sc(Nc3ccc(F)cc3F)nc2C1, the cytotoxicity at 70.5 h is reported as 0.35%.
With CS(=O)(=O)NCc1cc(-c2cc(F)cc(F)c2)nc(N2CCCC2)n1 the cytotoxicity at 70.5 h was -12.8%.
Cc1csc2ncc(-c3ccnc(N4CCC[C@H](C(N)=O)C4)n3)c(=O)n12 gave a cytotoxicity at 70.5 h of 14.4%.
Compound CC(C)(C)Nc1nc(-c2cccnc2)c(-c2ccnc(NCCO)n2)s1 has a cytotoxicity at 70.5 h of -9.49%.
Work on Cc1sc2ncc(-c3ccnc(NC4CCN(C)CC4)n3)c(=O)n2c1C yielded a cytotoxicity at 70.5 h of -2.25%.
Compound CN(c1nccc(-c2cnc3sc(Cl)cn3c2=O)n1)C1CCCCC1 has a cytotoxicity at 70.5 h of -3.38%.
CCNc1nc(-c2cccnc2)c(-c2ccnc(NS(C)(=O)=O)n2)s1 showed a cytotoxicity at 70.5 h of -8.33%.
For C[C@H](NS(C)(=O)=O)C(=O)NCc1cc(-c2ccco2)n(CC(F)(F)F)n1, the cytotoxicity at 70.5 h was -4.57%.
In the case of Fc1ccc(-c2n[nH]cc2-c2ccnc(NCCN3CCCC3)n2)cc1, the cytotoxicity at 70.5 h is reported as 24%.
Compound COCCCNc1nccc(-c2c[nH][nH]c2=O)n1 has a cytotoxicity at 70.5 h of 22.8%.
CN1CCN(CC2CC2)C(=O)c2cnc(N3CCCC3)nc21 gave a cytotoxicity at 70.5 h of 15.9%.
For CN1CCN(CC2CC2)C(=O)c2cnc(N3CCCCC3)nc21, the cytotoxicity at 70.5 h was 30.2%.
In the case of Cc1ncc(-c2ccnc(N3CCN(C)CC3)n2)c(-c2cccnc2)n1, the cytotoxicity at 70.5 h is reported as -13.1%.
CCOCC(=O)N1CCC(c2nccn2Cc2cscn2)CC1 showed a cytotoxicity at 70.5 h of 21.4%.
For CCc1ccc(CN(CC)Cc2ccc(S(=O)(=O)NC)cc2)cc1, the cytotoxicity at 70.5 h was -1.74%.
For CN(Cc1nc(-c2cccs2)no1)Cc1nc2c(s1)CCCC2, the cytotoxicity at 70.5 h was -3.38%.
Cc1cccc(-n2cnnc2CCCN2CCOCC2)c1 gave a cytotoxicity at 70.5 h of -7.97%.
CC(C)c1cc(C(=O)N2CC[C@@H](c3ccc4c(c3)OCO4)[C@H](O)C2)[nH]n1 gave a cytotoxicity at 70.5 h of 3.33%.
In the case of COc1ccc(OC)c(-n2cnnc2COC(C)C)c1, the cytotoxicity at 70.5 h is reported as -0.141%.
With COCCN1CCCC2(CCN(c3nccc4ccccc34)C2)C1=O (stereo not drawn) the cytotoxicity at 70.5 h was 11.2%.
C[C@@H]1CN(c2nc(N)nc3c2CCC3)CC[C@@]1(O)C1CCC1 gave a cytotoxicity at 70.5 h of 4.77%.
OCC1(CCOc2ccccc2)CCN(c2ccc(Cl)cn2)CC1 showed a cytotoxicity at 70.5 h of -7.7%.
For O=S(=O)(c1cccnc1)N1C[C@@H]2CC[C@H](C1)N(Cc1ccccc1)C2, the cytotoxicity at 70.5 h was -6.7%.
Work on CN(C)C[C@@H]1CN(C(=O)Cc2ccccc2)C[C@@H]1CO yielded a cytotoxicity at 70.5 h of -3.7%.
Cc1nc(CCN(C)C(=O)CCNC(=O)c2ccccc2F)no1 gave a cytotoxicity at 70.5 h of -4.9%.
Compound CN(Cc1ccccc1)CC1(O)CCCN(Cc2ccc(F)cc2)C1=O (stereo not drawn) has a cytotoxicity at 70.5 h of -3.64%.
CNc1ncc(CN(C)C(=O)[C@@]23CNC[C@@H]2CN(C(=O)C2CC2)C3)cn1 showed a cytotoxicity at 70.5 h of -7.16%.
Compound CN1CCC(c2nnc(CN3CCOCC3)n2C)CC1 has a cytotoxicity at 70.5 h of -24.5%.
For C/C=C(\C)CN1CCC2(CCC(=O)N2OCc2ccccc2F)CC1, the cytotoxicity at 70.5 h was -7.98%.
Compound CSCC[C@@H](CO)n1ccnc1-c1nccn1C has a cytotoxicity at 70.5 h of -5.66%.
Work on COc1ccc(-c2cn([C@H](CO)CC(C)C)nn2)cn1 yielded a cytotoxicity at 70.5 h of -4.51%.
CC1(C)CNC(=O)c2nc(CCN3CCOCC3)[nH]c2C1 gave a cytotoxicity at 70.5 h of -7.47%.
Compound CCC(Nc1cccc(OC)c1)C(=O)NCc1ccc2[nH]c(=O)[nH]c2c1 (stereo not drawn) has a cytotoxicity at 70.5 h of -11.6%.
With CC(C)Cc1ncc2c(n1)CN(c1cc(NCCO)nc(N)n1)C2 the cytotoxicity at 70.5 h was -8.13%.
In the case of CCC(C)N(Cc1ccncc1)Cc1cccc(Cn2cccn2)c1 (stereo not drawn), the cytotoxicity at 70.5 h is reported as -6.76%.
For COc1ccc(-c2n[nH]cc2CN(C)Cc2ccoc2)c(F)c1, the cytotoxicity at 70.5 h was -1.92%.
With Cc1cc(C(=O)N2CCC3(CC(=O)NC3=O)C2)c(-c2ccccc2)o1 (stereo not drawn) the cytotoxicity at 70.5 h was 17.4%.
For CN1CCN2CCN(Cc3ccccc3Cn3cccn3)CC2C1 (stereo not drawn), the cytotoxicity at 70.5 h was -0.968%.
With COc1cccc(-c2n[nH]cc2-c2nc(CN3CCCC3)no2)c1 the cytotoxicity at 70.5 h was 1.58%.
Compound O=C(N[C@@H]1CCNC[C@H]1O)c1cc(F)cc(Cl)c1 has a cytotoxicity at 70.5 h of -1.46%.
O=C(CN1CCOc2ccccc2C1)NCc1cc2n(n1)CCNC2 showed a cytotoxicity at 70.5 h of -2.02%.
Compound COC1CCN(S(=O)(=O)N2CC(c3ccccc3)C(C)(C)C2)CC1 (stereo not drawn) has a cytotoxicity at 70.5 h of 27.1%.
Compound CC(C)Nc1ccc(-c2ccnc3c2ccn3C)nn1 has a cytotoxicity at 70.5 h of 15.5%.
Work on CC(C)(C)c1ncc(C(=O)NCCSc2ccccn2)c(O)n1 yielded a cytotoxicity at 70.5 h of 30.9%.
O=C(N[C@H]1CC[C@H](O)CC1)c1ccc2nc(-c3ccccc3)cn2c1 gave a cytotoxicity at 70.5 h of -7.18%.
Compound COc1ncccc1CN1CCN(c2noc(C(C)C)n2)CC1 has a cytotoxicity at 70.5 h of 3.17%.
In the case of Cc1nc(N2C[C@@H](CN3CCCN(C)CC3)[C@@H](CO)C2)c2sccc2n1, the cytotoxicity at 70.5 h is reported as 27.9%.
For O=C1CN(C(=O)CC2c3ccccc3CCc3ccccc32)CCN1, the cytotoxicity at 70.5 h was 2.75%.
In the case of Cc1nccn1CCC1CCN(C2CCC3(CCNCC3)CC2)CC1, the cytotoxicity at 70.5 h is reported as 13.6%.
Compound CSCC1CCCN(c2ncnc3oc(C)nc23)C1 (stereo not drawn) has a cytotoxicity at 70.5 h of -9.81%.
Compound COc1cccc(Cn2cc(C3=CCN(CCO)CC3)cn2)c1 has a cytotoxicity at 70.5 h of -11%.
For COc1ccccc1N1CCN(C(=O)Cn2nc(C)c(C)c2C)C(C)C1 (stereo not drawn), the cytotoxicity at 70.5 h was -3.01%.
For CN(C)CCNc1cc(-c2ncccc2O)c2cc[nH]c2n1, the cytotoxicity at 70.5 h was -7.75%.
c1ccc(CCc2n[nH]c(C3CCC3)n2)cc1 showed a cytotoxicity at 70.5 h of -2.16%.
Work on COCCN1CCC(c2nc3c([nH]2)CC(C)(C)CNC3=O)C1 (stereo not drawn) yielded a cytotoxicity at 70.5 h of 10.3%.
Compound CCc1cnc(C)nc1NCCN1CCCC(C(N)=O)C1 (stereo not drawn) has a cytotoxicity at 70.5 h of 0.301%.
In the case of CCO[C@H]1C[C@@H](O)C12CCN(C(=O)CC(F)(F)F)CC2, the cytotoxicity at 70.5 h is reported as -7.18%.
O=C1CC[C@@H](CN(Cc2ccncc2)Cc2nc(CC3CC3)no2)N1 gave a cytotoxicity at 70.5 h of -5.49%.
In the case of CCN(CCN1CCCCCC1)C(=O)c1cnc(-c2cccnc2)nc1, the cytotoxicity at 70.5 h is reported as -2.81%.
Compound COc1cccc(-c2n[nH]cc2C(=O)NC(C)CC(=O)O)c1 (stereo not drawn) has a cytotoxicity at 70.5 h of -2.91%.
Compound CCc1nnc(CN(C)C(=O)CN2CC(c3ccccc3)CC2=O)o1 (stereo not drawn) has a cytotoxicity at 70.5 h of -4.25%.
In the case of O=C1CCN(C(=O)c2csc(-c3ccc(C(F)(F)F)cc3)n2)CCN1, the cytotoxicity at 70.5 h is reported as -8.28%.
In the case of COc1ccccc1CN1C(=O)O[C@@H]2CN(c3ccccn3)C[C@@H]21, the cytotoxicity at 70.5 h is reported as 22.7%.
Compound Cc1ccc(-c2nc(CN3CCOCC3)no2)cc1N1CCNC1=O has a cytotoxicity at 70.5 h of -6.32%.
